As usually defined, the melting point is the temperature, or range, at which the solid turns liquid.

`N#CNC(=N)Nc1cc(Cl)cc(Cl)c1` yielded a melting point of 196 to 198 °C. `CCC(CC)(CC(=O)Nc1cccc(/C=C/c2nc(C3CC3)cs2)c1)C(=O)O` had a melting point of 153 to 157 °C. In turn, `COc1ccccc1CN[C@H]1CCCN(CCO)[C@H]1c1ccccc1` (relative stereo) came in with a melting point of 148 to 149 °C. Take `COc1ccccc1NC(=O)Nc1ccc(CC(=O)NC(CC(C)C)c2ncc(CCC(=O)O)s2)cc1` (stereo not drawn): the melting point is 197 to 198 °C. Turning to `CC(=O)c1nc2c(cc1F)C[C@@H]1CN(C(=O)OC(C)(C)C)C[C@@H](C)N21`, the melting point was 178 to 180 °C. With `CC(=CC(=O)c1cccnc1)N1CCCC1`, the melting point lay within 116 to 118 °C. The compound `Cc1ccccc1NO` gave a melting point of 38 to 39 °C. To `CCc1cc(NCc2ccc(-c3ccccc3C#N)cc2)n2nccc2n1` belongs 230 to 233 °C. Compound `CC1(O)NC(=O)OC12CCN(Cc1ccccc1)CC2` (stereo not drawn) displayed a melting point of 162 to 164 °C. For `CCOC(=O)c1cnn(-c2cccc(Cl)n2)c1S(N)(=O)=O`, the melting point is 125 to 128 °C. Compound `O=C(c1ccc(Nc2nc(-c3ccccc3)nc3ccccc23)cc1)N1CCN(c2ncc(Cc3ccccc3)cn2)CC1` gave a melting point of more than 250 °C. `CC(C)=NN=C1NCC(=O)N1` showed a melting point of 182 to 187 °C. As to `Cc1ccc(C(=O)Nc2c(NC(=O)CN(C)C)ccc3c2C(=O)c2ccccc2C3=O)cc1`, the melting point lay in the range of 190 to 191 °C. Take `c1ccc(-c2cc3ccccc3o2)nc1`: the melting point lay in the range of 86 to 87 °C.

Turning to `COc1ccc(-c2c(NC(=O)Nc3ccc(F)cc3F)c(=O)oc3ccc(Cl)cc23)cc1OC`, the melting point lay within 267 to 270 °C. With `CCOC(=O)CO[C@H]1CC[C@H](CCN(C(=O)c2ccccc2)S(=O)(=O)c2ccc(Cl)cc2)CC1`, the melting point fell in the range of 81 to 82 °C. `CN(C)CC1CCc2cc(NC(=O)c3ccc(-c4ccc(N)cc4)cc3)ccc2C1` (stereo not drawn): the melting point was 148 to 150 °C. On to `CCOC(=O)CCCOc1ccc(NC(=O)c2ccc(C(C)(C)C)cc2)cc1`, for which the melting point was 100 to 101 °C. Compound `CNS(=O)(=O)c1cc(OC)c(OC)c(C(=O)NCC2CCCN2C)c1` (stereo not drawn) returned a melting point of 111 to 112 °C. To `COc1c(C)c(C)c(NC(=O)OC(C)(C)C)c(C)c1Br` belongs 159 to 161 °C; to `O=C1CCC(N2Cc3c(OCc4ccc(CN5CCC(c6cccnc6)CC5)cc4)cccc3C2=O)C(=O)N1` (stereo not drawn), 161 to 163 °C. `O=C1NC(=O)c2ccccc2/C1=C/Nc1ccc(CN2CCCCC2)cc1`: the melting point fell in the range of 185 to 186 °C. In the case of `O=C1N(Cn2nc3ccccc3n2)c2ccccc2C12COc1cc3c(cc12)CCO3` (stereo not drawn) it was 102 to 105 °C; in that of `O=C(O)C1=CS[C@@H]2/C(=C\c3cc4c(s3)CCN(Cc3ccccc3)C4)C(=O)N12`, 198 °C; in that of `O=C(O)C1=Cc2cc(Oc3ccc(C(F)(F)F)cc3)ccc2OC1C(F)(F)F` (stereo not drawn), 154 °C. `O=S(=O)(Nc1ccc(Cl)cc1C=NOCc1ccc(C(F)(F)F)cc1C(F)(F)F)C(F)(F)F` displayed a melting point of 65 to 67 °C. In turn, `O=C(NC(SC(=O)c1ccccc1)C(=O)NC(Cc1c[nH]c2ccccc12)C(=O)O)c1ccccc1` (stereo not drawn) registered a melting point of 188 to 191 °C. `COc1cncnc1N1CCN(CCCc2c[nH]c3ccc([N+](=O)[O-])cc23)CC1` yielded a melting point of 163 to 166 °C.

For `Nc1cc[nH]c(=O)c1Br`, the melting point is 255 to 258 °C. `COCC1CN(c2ccc(C3CC3)cc2)C(=O)O1` (racemic) registered a melting point of 58 to 60 °C. `COc1cc(C=CC(=O)Nc2cnc3ccccc3c2-c2ccccc2)cc(OC)c1OC(C)=O` yielded a melting point of 247 to 248 °C.

In turn, `CC(C)NCC(O)c1ccc(N)c(C(F)(F)F)c1` (stereo not drawn) came in with a melting point of 136 to 138 °C.

Turning to `COc1cc(C2C3=C(COC3=O)N(C)c3cc4c(cc32)OCO4)cc(OC)c1O` (stereo not drawn), the melting point was 250 °C. In the case of `COc1ccc2c(c1O)NC(O)C1CCCN1C2=O` (stereo not drawn) it was 152 to 155 °C; in that of `COc1cc2cc([N+](=O)[O-])ccc2c([N+](=O)[O-])c1O`, 239 to 242 °C; in that of `Cc1cccc2c(=O)n(S(=O)(=O)c3ccc(Cl)cc3)c(=O)[nH]c12`, 221 to 225 °C.

`Cc1ccc(NCCN(C)C)c([N+](=O)[O-])c1`: the melting point stood at 59 °C. On to `CSc1c(Cl)c(O)nn1C`, for which the melting point was in the range of 163 to 165 °C. Consider `COc1ccc2nccc(CCC[C@@H]3CCN(CCCc4ccccc4F)C[C@@H]3C(=O)O)c2c1`, for which the melting point stood at 194 °C.

Take `CCCCCCCCCCCCCCCCC[C@H](C[C@H](O)[C@H](CC)C(=O)O)OCc1ccccc1`: the melting point is 62 to 63.5 °C. Compound `O=C(CS(=O)(=O)c1ccccc1)OC1CCCCC1` gave a melting point of 35 to 38 °C. Regarding `COCCOCCN1C(=O)C2(COc3cc4c(cc32)OCCO4)c2ccccc21` (stereo not drawn), the melting point fell in the range of 90 to 91 °C. To `CNC(=O)n1cnc(C)c1Cl` belongs 94.1 to 94.4 °C; to `CNc1cc(Oc2cccc(C(F)(F)F)c2)nc(C(=O)Nc2ccccc2)c1`, 158 to 160 °C. To `CCCc1ccc2c(c1)C(=O)N(c1ccc(C(C)C(=O)O)cc1)C2` (stereo not drawn) belongs 175 to 177 °C; to `COc1ccc(S(=O)(=O)NC=NCCSCc2csc(NC=NN)n2)cc1`, 68 to 76 °C.

With `CCN(CC)C(=O)c1nc(C)c(-c2ccncc2)s1`, the melting point is 87.5 to 89 °C. To `CC(C)CNCc1cccc(OCCCNc2nc(N)nn2C)c1` belongs 89 to 90 °C; to `Nc1cc(=O)n(Cc2cccc(C(F)(F)F)c2)[nH]1`, 130 °C; to `CCc1cc2c(s1)-n1nc(C(N)=O)nc1C(OC(C)=O)N=C2c1ccccc1Cl` (stereo not drawn), 168 to 170 °C. Consider `N#CC(C#N)=Cc1ccc(O)c(O)c1`, for which the melting point came out at 225 °C. `COC(=O)CC(C)C(=O)c1ccc(O)cc1` (stereo not drawn) gave a melting point of 89 to 91 °C. Take `C=C(CN1CCOCC1)C(=O)O`: the melting point lay in the range of 121 to 125 °C.

Regarding `CCOC(=O)COc1cc2cc(C(C)O)sc2c(Cl)c1Cl` (stereo not drawn), the melting point is 101 to 103 °C. The compound `S=c1sscc1-c1ccccc1` came in with a melting point of 122 to 124 °C. `CC(C)(N)c1ccc(-c2nc(Nc3ccc(CCN4CCOCC4)cc3)ncc2Cl)cc1` registered a melting point of 166 to 173 °C. Compound `COc1ccc(OC)c2c1C[C@@H](O)[C@H](N1CCN(c3ccccc3Cl)CC1)C2` (relative stereo) showed a melting point of 237 to 239 °C.

`O=C(C=P(c1ccccc1)(c1ccccc1)c1ccccc1)CCCCO` showed a melting point of 121 to 124 °C. In turn, `Cc1c(/C=C/C(=O)c2cccc3ccccc23)ncn1C(c1ccccc1)(c1ccccc1)c1ccccc1` returned a melting point of 184 to 186 °C. Consider `Nc1nc(N)c(-c2cc(Cl)cc(Cl)c2Cl)c(C(F)(F)F)n1`, for which the melting point lay in the range of 226 to 227 °C. `Cc1ccc(C)c(P(=O)(C(=O)c2c(Cl)cccc2Cl)C(=O)c2c(Cl)cccc2Cl)c1` gave a melting point of 172 °C. To `CC1CN(CC(C)C(O)c2ccc(C(C)(C)C)cc2)CC(C)O1` (stereo not drawn) belongs 49 to 50 °C; to `COc1cc(Nc2nccc(-c3ccc(N4CCCNCC4)nc3)n2)cc(OC)c1OC`, 144 to 145 °C; to `COc1ccc(C2CCN(C(=O)C(=O)O)CC2)cc1OC1CCCC1`, 112 to 113 °C. On to `CCOC(=O)Cc1cc(C)c(C(=O)c2ccc(Cl)cc2Cl)n1C`, for which the melting point is 90 to 92 °C. In the case of `O=P(O)(O)C(O)(Cn1ccnc1)P(=O)(O)O` it was 235 to 241 °C. In the case of `CCOC(=O)CCc1cn(Cc2ccc(C(=O)NCc3nc(-c4ccccc4)oc3C)cc2)nc1-c1ccccc1` it was 190 to 191 °C. Consider `Cc1onc(NS(=O)(=O)c2ccccc2-c2ccc(-c3ncccn3)cc2Cn2ccc(C(F)(F)F)n2)c1C`, for which the melting point was 108 to 114 °C.

In turn, `Cc1c(CCN(C)C(=O)OC(C)(C)C)c2cc(S(=O)(=O)c3ccccc3)ccc2n1C` showed a melting point of 147 to 149 °C. For `CCN(CC)CC=CC(=O)Nc1cc2c(Nc3ccc(F)c(Cl)c3)ncnc2cc1OC1CCCC1`, the melting point was 105 °C. `CC1=NC(=NOC(=O)NC(C)C)SC1(C)C` showed a melting point of 114 to 116 °C. In the case of `Cc1cc(-c2sc(N3CCN(Cc4ccc(C(F)(F)F)cc4)C3=O)nc2C)on1` it was 201 to 203 °C; in that of `Nc1nc(Nc2ccc3nc[nH]c3c2)sc1C(=O)c1cc(Cl)sc1Cl`, more than 300 °C. For `CN1CCCC2(CCn3c(c(C4=C(c5cn(C)c6ccccc56)C(=O)NC4=O)c4ccccc43)C2)C1` (stereo not drawn), the melting point lay in the range of 144 to 146 °C. Compound `COC(=O)CCC/C=C(\c1cc(C)c(OC)c(C(=O)OC)c1)c1cc(C)c2oc(=O)n(C)c2c1` showed a melting point of 120 °C.

Turning to `COC(=O)C(=O)CC(=O)c1ccc(Cl)cc1`, the melting point lay in the range of 108 to 110 °C. In the case of `CCOC(=O)c1cn(-c2cccs2)c2c(F)c(F)c(F)c(C)c2c1=O` it was 198 to 200 °C. As for `O=C(O)COc1ccc(-c2nn(-c3ccccc3)c3ncccc23)cc1`, the melting point fell in the range of 220 to 222 °C.

The compound `CC(=O)Nc1nc(CCc2ccc(CC(=O)NC(=N)N)s2)cs1` had a melting point of 188 to 190 °C. Compound `CC(C)=NNc1ccc(OCC(C)NCC(O)COc2ccccc2C#N)nn1` (stereo not drawn) returned a melting point of 121 to 123 °C. Take `C=C(c1cn(-c2c(Cl)cc(C(F)(F)F)cc2Cl)nc1C#N)C(F)(F)C(F)(F)C(F)(F)F`: the melting point lay within 109 to 110 °C. Take `COc1cc(OC)cc(-c2ncoc2-c2ccc(OC(F)(F)F)c(N)c2)c1`: the melting point lay in the range of 119 to 120 °C.

The compound `O=C1Nc2c(ccc3ccccc23)SC1Cc1ccc(Cl)cc1` (stereo not drawn) yielded a melting point of 185 to 186 °C. In the case of `Cc1ccc2oc(Cc3nc4cc(C)ccc4o3)nc2c1` it was 91 °C; in that of `CC(C)OC(=O)N1CCN(c2ccn3ncc(Br)c3n2)CC1`, 78 to 79 °C; in that of `CCS(=O)(=O)c1ccc(Oc2cc(Cl)c(Cl)cc2Cl)nc1`, 120 to 122 °C. Consider `O=C(O)/C=C/c1cccc(OCCC(c2ccccc2)(c2ccccc2)c2ccccc2)c1`, for which the melting point is 104 to 109 °C.

The compound `O=c1occ(CSc2ccc([N+](=O)[O-])cc2)o1` registered a melting point of 109 to 112 °C.

Values taken from a melting point compilation (Tetko et al.; mined from patent text by program, amines drawn as free bases though some values may be those of a salt).
